Data reported in patent publication US8173654B2, “Triazolopyridazine compounds” (Janssen Pharmaceutica N.V., priority 2005, dated 2012).

How the values were obtained:
S114 tumors = experiment: S114 tumor model; type: in vivo, athymic nude mice; conditions: 100 mg/kg p.o. q.d., four consecutive days, five mice
Method: Female athymic nude mice were inoculated subcutaneously in the left inguinal region of the thigh with 5×10^6 S114 cells in a delivery volume of 0.1 mL. Tumors were allowed to grow to for five days. Mice were dosed orally at 100 mg/kg compound in 20% HPBCD or with vehicle (20% HPBCD, control group). Dosing was continued for 4 consecutive days. On the day of study termination, tumors were immediately excised intact and weighed, with final tumor wet weight (grams) serving as a primary efficacy endpoint.
Female athymic nude mice (CD-1, nu/nu, 9-10 weeks old) were obtained from Charles River Laboratories (Wilmington, Mass.) and were maintained according to NIH standards. All mice were group housed (5 mice/cage) under clean-room conditions in sterile micro-isolator cages on a 12-hour light/dark cycle in a room maintained at 21-22° C. and 40-50% humidity. […]
The murine NIH 3T3 derived cell line S114, which has been engineered to over-express both Human Growth Factor (HGF) and the human c-Met receptor, was propagated in DMEM media (Life Technologies, Bethesda, Md.). Immediately prior to injection, cells were washed counted and resuspended in PBS. […]
Mice were dosed orally at 100 mg/kg compound in 20% HPBCD or with vehicle (20% HPBCD, control group). […] Body weight was measured at the end of the study and a loss of body weight >10% was used as an indication of lack of compound tolerability. […]

c-Met [1] = molecular target: T1, c-Met (Homo sapiens, UniProt P08581); experiment: Cell based ELISA assay for HGF stimulated c-Met phosphorylation in S114 cells; set-up: expressed in transfected cells; host or cells: S114 (murine NIH 3T3 derived); conditions: read-out: c-Met Cell ELISA IC-50
Target sequence in this assay (P08581 25-1390): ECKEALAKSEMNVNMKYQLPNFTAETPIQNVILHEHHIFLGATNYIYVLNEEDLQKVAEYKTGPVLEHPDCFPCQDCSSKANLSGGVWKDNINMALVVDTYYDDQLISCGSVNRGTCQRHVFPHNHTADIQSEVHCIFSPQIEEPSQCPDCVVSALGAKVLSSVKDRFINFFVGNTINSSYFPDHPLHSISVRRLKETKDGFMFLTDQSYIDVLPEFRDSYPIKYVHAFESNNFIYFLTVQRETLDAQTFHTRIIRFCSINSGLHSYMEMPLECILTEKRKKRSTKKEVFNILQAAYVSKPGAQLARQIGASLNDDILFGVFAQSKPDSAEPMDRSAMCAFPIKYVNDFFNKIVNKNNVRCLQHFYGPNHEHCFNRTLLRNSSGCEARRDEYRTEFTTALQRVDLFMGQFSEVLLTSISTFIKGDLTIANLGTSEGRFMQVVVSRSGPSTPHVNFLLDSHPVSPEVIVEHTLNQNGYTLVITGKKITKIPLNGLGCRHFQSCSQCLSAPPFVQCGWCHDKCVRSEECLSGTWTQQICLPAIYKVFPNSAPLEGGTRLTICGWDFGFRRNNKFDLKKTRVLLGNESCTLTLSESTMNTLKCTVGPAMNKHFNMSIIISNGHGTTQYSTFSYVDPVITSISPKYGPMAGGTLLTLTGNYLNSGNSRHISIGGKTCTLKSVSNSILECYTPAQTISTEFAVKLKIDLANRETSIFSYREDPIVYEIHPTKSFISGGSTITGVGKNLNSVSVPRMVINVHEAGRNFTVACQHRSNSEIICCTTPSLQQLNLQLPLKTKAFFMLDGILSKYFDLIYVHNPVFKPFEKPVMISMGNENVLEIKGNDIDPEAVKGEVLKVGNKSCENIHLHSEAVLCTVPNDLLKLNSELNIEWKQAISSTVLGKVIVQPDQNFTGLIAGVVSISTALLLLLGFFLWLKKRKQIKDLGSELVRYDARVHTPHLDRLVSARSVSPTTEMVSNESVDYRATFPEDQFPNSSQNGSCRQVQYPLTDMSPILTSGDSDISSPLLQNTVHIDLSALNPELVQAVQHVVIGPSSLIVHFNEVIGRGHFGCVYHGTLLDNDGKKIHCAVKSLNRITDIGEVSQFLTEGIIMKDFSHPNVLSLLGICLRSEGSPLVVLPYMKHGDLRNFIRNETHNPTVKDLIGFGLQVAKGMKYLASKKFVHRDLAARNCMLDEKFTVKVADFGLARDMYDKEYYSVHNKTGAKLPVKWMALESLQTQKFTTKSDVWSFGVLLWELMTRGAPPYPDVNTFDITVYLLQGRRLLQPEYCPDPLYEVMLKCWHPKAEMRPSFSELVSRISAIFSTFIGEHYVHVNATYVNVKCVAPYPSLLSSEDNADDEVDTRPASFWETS

c-Met [2] = molecular target: T1, c-Met; experiment: Delfia autophosphorylation kinase assay on the c-Met; type: biochemical; set-up: The purified His6 tagged cytoplasmic domain of c-Met was diluted to a concentration of 500 ng/ml; host or cells: Sf9 insect cells (baculovirus, pFastBacHTa); conditions: His6 tagged cytoplasmic domain of c-Met, 1 μM ATP; read-out: cMet Delfia autophos IC-50
In short: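 Time-resolved fluorescence tracked autophosphorylation of the His6-tagged c-Met cytoplasmic domain, dispensed at 500 ng/ml onto nickel-chelate plates. Reaction buffer held 1 μM ATP, 10 mM MgCl2, vanadate and DTT at pH 8.0, for 1 h at room temperature.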
Target sequence in this assay (P08581 956-1390 limits assumed): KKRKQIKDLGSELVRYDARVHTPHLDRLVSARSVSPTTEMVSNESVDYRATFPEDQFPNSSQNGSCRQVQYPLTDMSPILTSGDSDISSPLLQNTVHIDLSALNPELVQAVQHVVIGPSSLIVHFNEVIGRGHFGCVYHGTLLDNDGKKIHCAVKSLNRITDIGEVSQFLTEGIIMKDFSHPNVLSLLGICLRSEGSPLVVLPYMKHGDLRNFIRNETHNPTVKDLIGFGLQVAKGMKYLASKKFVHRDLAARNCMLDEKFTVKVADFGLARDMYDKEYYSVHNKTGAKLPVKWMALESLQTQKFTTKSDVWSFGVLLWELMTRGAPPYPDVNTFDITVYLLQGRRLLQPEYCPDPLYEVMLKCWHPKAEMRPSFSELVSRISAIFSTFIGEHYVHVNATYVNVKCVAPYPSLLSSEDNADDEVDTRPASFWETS

Cn1cc(-c2ccc3nnc(C(F)(F)c4ccc5ncccc5c4)n3n2)cn1 [Example 61, 6-{Difluoro-[6-(1-methyl-1H-pyrazol-4-yl)-[1,2,4]triazolo[4,3-b]pyridazin-3-yl]-methyl}-quinoline]
mice with tumors regressed to non-palpable, non-detectable tumors by the end of the study (S114 tumors): three of the five mice | regression of S114 tumors (S114 tumors): regressed in all five mice | IC50 (c-Met [1]): 2 nM | IC50 (c-Met [2]): 1 nM
